Tested on: CNCM I-2545
Experiment: oligonucleotide array analysis of IFN-α modulated gene expression
Assay type: cell-based, human
Method: All these cell lines were cultured in RPMI medium supplemented with 10% FCS, glutamine (2 mM), sodium pyruvate (1 mM), non-essential amino acids and HEPES buffer (10 mM) (all from GIBCO Life Sciences, Paisley, UK). When confluent, the cells were passaged by trypsinization.
Cultured melanoma cells were harvested by scraping and total cellular RNA was extracted. 10 μg from each sample were used directly as templates for cDNA synthesis using a commercial kit (Roche Molecular Biochemicals, Rotkreuz, Switzerland). The T7 promoter sequence incorporated into the cDNA synthesis primer allowed template amplification and biotin labeling by in vitro transcription using a commercial kit (Affymetrix, Santa Clara, Calif.). After alkaline heat fragmentation […] was hybridised to the array (Affymetrix, Santa Clara, Calif.) and all subsequent steps were performed following standard procedures as supplied with the arrays. Raw data were collected with a confocal laser scanner (Hewlett Packard, Palo Alto, Calif.) using GeneChip software v3.1 (Affymetrix, Santa Clara, Calif.).
Raw data were normalized based on the total chip signal obtained upon hybridisation of ME15 cell line cDNA. This array was selected because: i) the 5′/3′ intensity ratio of control genes was smaller than 3; ii)>25% of the genes are called “present” by Genechip; iii) the image appearance is homogeneous with low background and no sign of mechanical chip damage.
The normalized average difference (nAD) between the signals of the perfect and of the mismatch probesets for each gene was used as the expression level of a given gene. At least one nAD value in a pairwise comparison of data has to exceed 50 to be included. Based on nAD, change factors related to IFN-α exposure were also calculated. Negative nAD values were set to 20 in order to avoid the calculation of artificially high modifications. In order to exclude artefacts, only genes with robust change factors, greater than 2-fold, were included in the analysis. […] Genes were clustered according to their mode of regulation.
Total cellular RNA was extracted from the sensitive and resistant melanoma cell lines identified above, reverse transcribed and processed for hybridization to an oligonucleotide array (Hu6800FL, PN 900183) containing probe sets derived from 7000 full-length human genes. Expression levels for each gene were calculated as normalized average difference (nAD, see materials and methods).
Patterns of genes expressed in IFN-α sensitive and resistant melanoma cell lines were investigated upon 48 hour culture in the presence of IFN-α. CNCM I-2546 and CNCM I-2545 were studied in detail.
In Table 2 below, CNCM I-2546 and CNCM I-2545 cultured for 48 hours in the absence or in the presence of 100 U/ml IFN-α were used to assay cytokine modulated gene expression as matched with data obtained in fibrosarcoma cells. This analysis yielded six clusters of genes. […] Data are presented as average difference of signal intensity between match and mismatch probesets.
In Table 3 below, CNCM I-2546 and CNCM I-2545 cell lines cultured for 48 hours in the absence or in the presence of 100 U/ml IFN-α were used to identify novel cytokine induced genes whose expression was not found to be modulated in fibrosarcoma cells. Cluster 1 includes genes inducible in the CNCM I-2546 sensitive but not in the CNCM I-2545 resistant cell line. Cluster 2 comprises genes inducible in both lines. Data are presented as average difference of signal intensity between match and mismatch probesets.

[1] = CNCM I-2545, IFN-α 100 U/ml 48 hours

IFN-α
change factor (CF) D28137 bst-2 [1]: 1.38 | change factor (CF) D32050 alanyl-trna synthetase [1]: −0.92 | change factor (CF) D49824 hla-b null allele [1]: −0.97 | change factor (CF) D50914 EST [1]: −2 | change factor (CF) D78132 rheb gene, ras-related gtp binding protein gene [1]: 1.88 | change factor (CF) HG658 major histocompatibility complex, class 1 c [1]: −1.6 | change factor (CF) HG1612 macmarcks [1]: −0.16 | change factor (CF) HG2917 major histocompatibility complex, class i, e [1]: −0.1 | change factor (CF) J00105 beta-2 microglobulin gene [1]: 0.26 | change factor (CF) J00212 leukocyte interferon (ifn-alpha) [1]: −4.3 | change factor (CF) J03909 gamma-interferon-inducible protein (ip-30) [1]: 2.38 | change factor (CF) J04164 interferon-inducible protein 27-sep [1]: 0 | change factor (CF) J04182 lysosomal membrane glycoprotein-1 (lamp1) [1]: 6.33 | change factor (CF) J04444 cytochrome c-1 gene [1]: 1.56 | change factor (CF) K01900 lymphocyte interferon alpha type 201 [1]: −6.8 | change factor (CF) K03515 neuroleukin [1]: −0.17 | change factor (CF) L07633 interferon-gamma [1]: 11.5 | change factor (CF) L13210 mac-2 binding protein [1]: −0.22 | change factor (CF) L35249 vacuolar h + -atpase mr 56,000 subunit (ho57) [1]: 16.85 | change factor (CF) L37043 casein kinase i epsilon [1]: 0.01 | change factor (CF) L40387 thyroid receptor interactor (trip14) [1]: −4.2 | change factor (CF) L42243 ifnar2 gene (interferon receptor) [1]: −2.1 | change factor (CF) M13755 interferon-induced 17-kda/15-kda protein [1]: 0.55 | change factor (CF) M19650 2′,3′-cyclic nucleotide 3prime-phosphodiesterase [1]: −0.38 | change factor (CF) M30818 interferon-induced cellular resistance mediator protein [1]: 0 | change factor (CF) M31013 nonmuscle myosin heavy chain (nmhc) [1]: −0.43 | change factor (CF) M34338 spermidine synthase [1]: −0.7 | change factor (CF) M60784 ul snrnp-specific protein [1]: 2.59 | change factor (CF) M65028 heterogeneous nuclear ribonucleoprotein a/b [1]: 1.29 | change factor (CF) M79462 pml-1 [1]: −9.05 | change factor (CF) M92642 alpha-1 type xvi collagen (col16a1) [1]: 4.75 | change factor (CF) M94880 mhc class i (hla-a*8001) [1]: −0.31 | change factor (CF) M97935 transcription factor isgf-3 [1]: −2.6 | change factor (CF) M98343 amplaxin (ems1) [1]: 2.15 | change factor (CF) S81914 iex-1 = radiation-inducible immediate-early gene [1]: 0.05 | change factor (CF) U01824 glutamate/aspartate transporter [1]: −8.69 | change factor (CF) U09579 melanoma differentiation associated (mda-6) [1]: 0 | change factor (CF) U18009 chromosome 17q21 clone lf113 [1]: −0.59 | change factor (CF) U18018 ela enhancer binding protein (ela-f) [1]: 0.15 | change factor (CF) U22970 16-jun gene, interferon-inducible peptide (6-16) [1]: 0.2 | change factor (CF) U41515 dss1 [1]: 5.15 | change factor (CF) U47025 fetal brain glycogen phosphorylase b [1]: −0.45 | change factor (CF) U50327 protein kinase c substrate 80k-h gene (prkcsh) [1]: −0.7 | change factor (CF) U50648 interferon-inducible rna-dependent protein kinase (pkr) [1]: −1.3 | change factor (CF) U51127 interferon regulatory factor 5 [1]: −1.88 | change factor (CF) U52513 rig-g [1]: −13.45 | change factor (CF) U53830 interferon regulatory factor 7a [1]: −4.15 | change factor (CF) U61263 acetolactate synthase homolog [1]: −0.36 | change factor (CF) U65579 mitochondrial nadh dehydrogenase-ubiquinone [1]: −0.01 | change factor (CF) U65932 extracellular matrix protein 1 (ecm1) [1]: −1.34 | change factor (CF) U69126 fuse binding protein 2 (fbp2) [1]: 0.39 | change factor (CF) U70063 human acid ceramidase [1]: 2.48 | change factor (CF) U72206 guanine nucleotide regulatory factor (lfp40) [1]: −0.47 | change factor (CF) U72882 interferon-induced leucine zipper protein (ifp35) [1]: −3.63 | change factor (CF) U78525 human eukaryotic translation initiation factor (eif3) [1]: 1.25 | change factor (CF) U91316 acyl-coa thioester hydrolase [1]: 0.69 | change factor (CF) X04412 plasma gelsolin [1]: 0 | change factor (CF) X07730 prostate specific antigen [1]: −1.75 | change factor (CF) X15949 interferon regulatory factor-2 (irf-2) [1]: 0 | change factor (CF) X57351 1-8d gene from interferon-inducible gene family [1]: 0.09 | change factor (CF) X57522 ring4 cdna [1]: −1.92 | change factor (CF) X67325 p27 [1]: 0 | change factor (CF) X70848 protein phosphatase 1, catalytic subunit [1]: 8.42 | change factor (CF) X76538 mpv17 [1]: −0.31 | change factor (CF) X90846 mixed lineage kinase 2 [1]: −4.95 | change factor (CF) X95325 dna binding protein a variant [1]: −1.51 | change factor (CF) X96401 rox protein [1]: −1.76 | change factor (CF) Y00264 amyloid a4 precursor [1]: 0.09 | change factor (CF) Z26491 gene catechol o-methyltransferase [1]: −0.31 | change factor (CF) Z47055 farnesyl pyrophosphate synthetase like [1]: 1.02 | change factor (CF) Z56281 interferon regulatory factor 3 [1]: −2 | nAD D28137 bst-2 (Table 3, CNCM I-2545 (+) IFN-α 100 U/ml 48 hours, (−) 37): 88 | change factor (CF) D28137 bst-2 (Table 3, CNCM I-2545, IFN-α 100 U/ml 48 hours): 1.38

Source: patent publication US20030096237A1, “Determination of the ability of patients to respond to a tumor treatment” (priority 2000, published 2003)
